Assay results reported in ChEMBL document CHEMBL5331072, “Development of potent and selective FAAH inhibitors with improved drug-like properties as potential tools to treat neuroinflammatory conditions” (Eur J Med Chem, 2023).
Values after ≈ are worked out from the molar mass of the structure shown. Active and inactive are the calls of the source. The rule behind the calls is not given here.

Key:
[1] = biological target: T1, Fatty-acid amide hydrolase 1 (Homo sapiens, UniProt O00519); experiment: Inhibition of human recombinant FAAH using AMC-AA as substrate preincubated for 30 mins followed by substrate addition and measured after 30 mins by multimode plate reader analysis
T1 sequence (O00519 whole entry): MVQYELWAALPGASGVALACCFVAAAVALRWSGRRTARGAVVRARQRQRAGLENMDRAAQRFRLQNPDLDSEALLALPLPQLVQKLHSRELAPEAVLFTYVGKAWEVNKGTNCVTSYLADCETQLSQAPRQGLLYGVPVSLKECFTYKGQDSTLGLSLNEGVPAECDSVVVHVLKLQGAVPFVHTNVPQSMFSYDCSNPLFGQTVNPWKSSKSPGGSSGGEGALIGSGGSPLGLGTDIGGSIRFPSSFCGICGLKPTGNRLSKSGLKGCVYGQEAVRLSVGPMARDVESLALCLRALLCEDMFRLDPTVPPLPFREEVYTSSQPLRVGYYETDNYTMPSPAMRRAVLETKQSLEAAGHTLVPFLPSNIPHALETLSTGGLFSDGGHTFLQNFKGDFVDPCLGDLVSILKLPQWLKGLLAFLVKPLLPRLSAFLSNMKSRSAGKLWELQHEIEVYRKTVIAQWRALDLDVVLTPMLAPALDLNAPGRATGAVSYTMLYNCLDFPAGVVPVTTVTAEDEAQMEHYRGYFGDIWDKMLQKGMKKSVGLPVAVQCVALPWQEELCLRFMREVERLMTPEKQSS

[2] = biological target: T2, Monoglyceride lipase (Homo sapiens, UniProt Q99685); experiment: Inhibition of human recombinant MAGL using 7-hydroxycoumarinyl arachidonate as substrate preincubated for 30 mins followed by substrate addition and measured after 30 mins by multimode plate reader analysis
T2 sequence (Q99685 whole entry): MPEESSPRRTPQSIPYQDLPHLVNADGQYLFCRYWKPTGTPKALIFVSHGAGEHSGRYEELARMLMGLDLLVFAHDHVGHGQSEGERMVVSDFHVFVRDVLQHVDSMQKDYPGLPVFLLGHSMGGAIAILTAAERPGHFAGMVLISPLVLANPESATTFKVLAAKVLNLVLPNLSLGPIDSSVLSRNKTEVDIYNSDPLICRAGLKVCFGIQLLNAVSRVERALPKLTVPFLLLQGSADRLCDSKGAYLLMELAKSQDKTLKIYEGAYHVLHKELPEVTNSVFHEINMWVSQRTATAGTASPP

[3] = Chemical stability of the compound at pH 3 measured for 24 hrs by HPLC analysis; format: physicochemical; settings: buffer, read-out: Stability
[4] = Chemical stability of the compound at pH 7.4 measured for 24 hrs by HPLC analysis; format: physicochemical; settings: buffer, read-out: Stability
[5] = Solubility of compound at pH 3 measured for 24 hrs; format: physicochemical; settings: buffer
[6] = Solubility of compound at pH 7.4 measured for 24 hrs; format: physicochemical; settings: buffer
[7] = Dissociation constant, pKa of the compound; format: physicochemical
[8] = biological target: T3, Fatty-acid amide hydrolase 1 (Homo sapiens) (UniProt O00519); experiment: Reversible inhibition of human recombinant FAAH at 10 to 100 nM using AMC-AA as substrate preincubated for 30 mins followed by substrate addition and measured after 30 mins by rapid dilution method; settings: dose 10-100 nM, time 1.0 hrs
T3 sequence (whole entry): T1 sequence (O00519 whole entry)

[9] = Cytotoxicity against mouse NIH3T3 cells assessed as inhibition of cell growth measured for 24 hrs by neutral red uptake assay; format: toxicity, cell-based
[10] = tested on: 1321N1; experiment: Cytotoxicity against human 1321N1 cells assessed as inhibition of cell growth at 10 nM measured for 24 hrs by MTT assay; format: functional; design: scale not given: the % may be the effect or the level left
[11] = tested on: 1321N1; experiment: Cytotoxicity against human 1321N1 cells assessed as inhibition of cell growth at 100 nM measured for 24 hrs by MTT assay; format: functional; design: scale not given: the % may be the effect or the level left
[12] = tested on: 1321N1; experiment: Cytotoxicity against human 1321N1 cells assessed as inhibition of cell growth at 1 uM measured for 24 hrs by MTT assay; format: functional; design: scale not given: the % may be the effect or the level left
[13] = tested on: 1321N1; experiment: Cytotoxicity against human 1321N1 cells assessed as inhibition of cell growth at 10 uM measured for 24 hrs by MTT assay; format: functional; design: scale not given: the % may be the effect or the level left
[14] = tested on: 1321N1; experiment: Cytotoxicity against human 1321N1 cells assessed as inhibition of cell growth at 30 uM measured for 24 hrs by MTT assay; format: functional; design: scale not given: the % may be the effect or the level left
[15] = tested on: 1321N1; experiment: Antiinflammatory activity against human 1321N1 cells assessed as reduction in TBHP-induced ROS production at 10 nM incubated for 24 hrs by CellROX green reagent based flow cytometry assay; format: functional, cell-based
[16] = tested on: 1321N1; experiment: Antiinflammatory activity against human 1321N1 cells assessed as reduction in TBHP-induced ROS production at 1 uM incubated for 24 hrs by CellROX green reagent based flow cytometry assay; format: functional, cell-based
[17] = Neurotoxicity against Wistar rat Hippocampus assessed as cell survival at 0.3 to 100 nM measured for 96 hrs by densitometric analysis; format: toxicity, tissue-based; settings: 0.1 µM, dose 0.3-100 nM
[18] = tested on: Hippocampus; experiment: Neuroprotective activity against Wistar rat Hippocampus assessed as reduction in LPS/IFN-gamma induced PI uptake in CA1 region at 0.3 to 100 nM measured for 96 hrs; format: functional; design: scale not given: the % may be the effect or the level left; settings: dose 0.3-100 nM
[19] = tested on: Hippocampus; experiment: Neuroprotective activity against Wistar rat Hippocampus assessed as reduction in LPS/IFN-gamma induced PI uptake in CA1 region measured for 96 hrs; format: functional, tissue-based
[20] = tested on: Hippocampus; experiment: Neuroprotective activity against Wistar rat Hippocampus assessed as reduction in LPS/IFN-gamma induced PI uptake in CA1 region at 0.1 to 10 uM measured for 96 hrs; format: functional, tissue-based; settings: dose 0.1-10 µM
[21] = Solubility of compound at pH 3 measured for 12 hrs; format: physicochemical; settings: buffer
[22] = Solubility of compound at pH 7.4 measured for 12 hrs; format: physicochemical; settings: buffer
[23] = tested on: Hippocampus; experiment: Neuroprotective activity against Wistar rat Hippocampus assessed as reduction in LPS/IFN-gamma induced PI uptake in CA1 region at 3 to 100 nM measured for 96 hrs; format: functional, tissue-based; settings: dose 3-100 nM

Compound | IC50 [1] [nM] | IC50 [2] [nM] | remaining at 24 h [3] [%] | remaining at 24 h [4] [%] | solubility at 24 h [5] [µM] | solubility at 24 h [6] [µM] | other results
NC(=O)c1cn(-c2cccc(OC(=O)N3CCN(CCCc4ccccc4)CC3)c2)nn1 | 47.4 | 2900 | > 99 | > 99 | 298 (≈ 129 µg/mL) | 38 (≈ 16.5 µg/mL) | –
Cc1cc(C(N)=O)c(-c2cccc(OC(=O)NCCCCCCN3CCN(C)CC3)c2)o1 | 1040 | > 10000 | – | – | – | – | –
Cc1cc(C(N)=O)c(-c2cccc(OC(=O)N3CCC(NCCCc4ccccc4)CC3)c2)o1 | 165 | 9880 | > 99 | > 99 | 353 (≈ 163 µg/mL) | 322 (≈ 149 µg/mL) | –
Cc1cc(C(N)=O)c(-c2cccc(OC(=O)N3CCN(CCCc4ccccc4)CC3)c2)o1 | 8.29 | 5060 | 98 | > 99 | 168 (≈ 75.2 µg/mL) | < 1 | pKa [7]: 8.5; inhibition [8]: Active; IC50 at 24 h [9]: 6400 nM; Activity [10]: 99.3%; Activity [11]: 97%; Activity [12]: 100%; Activity [13]: 101%; Activity [14]: 96%; Activity [15]: Active; Activity [16]: Active; Activity [17]: Non-Toxic; Activity [18]: 70%; EC50 [19]: 2.91 nM
NC(=O)c1ccn(-c2cccc(OC(=O)NC3CCN(CCc4ccccc4)CC3)c2)c1 | 315 | > 10000 | – | – | – | – | –
NC(=O)c1cn(-c2cccc(OC(=O)NCCCCCCc3ccccc3)c2)nn1 | 15.8 | 479 | 63 | 79 | – | – | IC50 at 24 h [9]: 35000 nM
Cc1cc(C(=O)O)c(-c2cccc(OC(=O)NCCCCCCc3ccccc3)c2)o1 | 10.5 | 2440 | < 1 | 92.7 | – | 172 (≈ 72.5 µg/mL) | –
Cc1cc(C(N)=O)c(-c2cccc(OC(=O)N(C)C3CCN(CCc4ccccc4)CC3)c2)s1 | 8450 | > 10000 | – | – | – | – | –
Cc1cc(C(N)=O)c(-c2cccc(OC(=O)N(C)C3CCN(CCc4ccccc4)CC3)c2)o1 | 6560 | > 10000 | – | – | – | – | –
O=C(NCCCCCCc1ccccc1)Oc1cccc(-c2nn[nH]n2)c1 | 7.54 | 8400 | < 1 | > 99 | – | 108 (≈ 39.5 µg/mL) | IC50 at 24 h [9]: 39000 nM; Activity [10]: 100.8%; Activity [11]: 98.5%; Activity [12]: 98.8%; Activity [13]: 99.8%; Activity [14]: 97%; Activity [15]: Active; Activity [16]: Active; Activity [17]: Non-Toxic; Activity [20]: Active; Activity [19]: Dose-Dependent Effect
NC(=O)c1ccn(-c2cccc(OC(=O)NCCCCCCc3ccccc3)c2)c1 | 3.72 | – | 32 | 38 | 3 (≈ 1.22 µg/mL) | – | –
Cc1cc(C(N)=O)c(-c2cccc(OC(=O)NCCCCCCc3ccccc3)c2)o1 | – | – | 31 | 9 | – | – | solubility at 12 h [21]: < 1 µM; solubility at 12 h [22]: < 1 µM; IC50 at 24 h [9]: 19200 nM
Cc1cc(C(N)=O)c(-c2cccc(OC(=O)NC3CCN(CCc4ccccc4)CC3)c2)s1 | 194 | > 10000 | – | – | – | – | –
Cc1cc(C(N)=O)c(-c2cccc(OC(=O)NC3CCN(CCCc4ccccc4)CC3)c2)o1 | 407 | > 10000 | – | – | – | – | –
Cc1cc(C(N)=O)c(-c2cccc(OC(=O)N3CCN(CCCc4ccccc4)CC3)c2)s1 | 15.6 | > 10000 | – | – | – | – | –
CN(C(=O)Oc1cccc(-n2ccc(C(N)=O)c2)c1)C1CCN(CCc2ccccc2)CC1 | > 10000 | > 10000 | – | – | – | – | –
NC(=O)c1cccc(-c2cccc(OC(=O)NC3CCCCC3)c2)c1 [URB-597] | – | 9380 | – | – | – | – | inhibition [8]: inactive
Cc1cc(C(N)=O)c(-c2cccc(OC(=O)N3CCC(CCCc4ccccc4)CC3)c2)o1 | 11.7 | 4120 | – | – | – | – | –
O=C(Oc1cccc(-c2nn[nH]n2)c1)N1CCN(CCCc2ccccc2)CC1 | 253 | > 10000 | > 99 | > 99 | 268 (≈ 105 µg/mL) | 272 (≈ 107 µg/mL) | –
Cc1cc(C(N)=O)c(-c2cccc(OC(=O)N3CCC(NCCc4ccccc4)CC3)c2)o1 | 26.3 | > 10000 | > 99 | > 99 | 277 (≈ 124 µg/mL) | 206 (≈ 92.2 µg/mL) | pKa [7]: 7.6; inhibition [8]: Active; IC50 at 24 h [9]: 45000 nM; Activity [17]: Non-Toxic; Activity [18]: Active; Activity [23]: Active
Cc1cc(C(N)=O)c(-c2cccc(OC(=O)NC3CCN(CCc4ccccc4)CC3)c2)o1 | 188 | > 10000 | 96 | > 99 | 282 (≈ 126 µg/mL) | 67 (≈ 30 µg/mL) | –
Cc1cc(C(=O)O)c(-c2cccc(OC(=O)N3CCN(CCCc4ccccc4)CC3)c2)o1 | 128 | > 10000 | > 99 | 97 | 249 (≈ 112 µg/mL) | 259 (≈ 116 µg/mL) | –
